Drawing on patent US12448389B2, “BRM targeting compounds and associated methods of use” (Prelude Therapeutics Incorporated, priority 2020, dated 2025), this text covers DC50 and Dmax for 14 molecules.

A word on the DC50: it is the concentration giving 50% degradation. One may read the Dmax as the greatest extent of degradation seen.

Assay [1] deals with T1, SMARCA2-HiBiT (Homo sapiens, UniProt P51531).
T1 construct: SMARCA2-HiBiT knock-in Hela monoclonal cell (CS302366); host or cells: HeLa monoclonal knock-in line (CRISPR HiBiT knock-in at the endogenous locus, heterozygous)
The experiment in a line: SMARCA2 HiBiT degradation assay in HeLa cells. The class given is cell-based. Conditions: 18 hours incubation; for DC50: read-out: HeLa_HiBit-SM2 DC50; for Dmax: HeLa, read-out: HeLa-HiBit-SM2 Dmax (%). In a few lines: (§1)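 HeLa monoclonal lines with heterozygous HiBiT knock-in were seeded at 2500 cells/well in EMEM with 10% FBS and treated with compound for 18 h at 37 °C. Remaining tagged protein was measured by Nano-Glo HiBiT lytic luminescence after 30–60 min at RT, and values came from curve fitting.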
On the technique in general: With HiBiT, luminescence reflects the tagged protein that the partner subunit can reach.

Assay [2] addresses T2, SMARCA4-HiBiT (Homo sapiens, UniProt P51532).
T2 construct: SMARCA4-HiBiT knock-in Hela monoclonal cell (CS3023226); host or cells: HeLa monoclonal knock-in line (CRISPR HiBiT knock-in at the endogenous locus, heterozygous)
Briefly: SMARCA4 HiBiT degradation assay in HeLa cells. The assay is classed as cell-based. The conditions noted are these: 18 hours incubation; for DC50: read-out: HeLa-HiBit-SM4 DC50; for Dmax: HeLa, read-out: HeLa-HiBit-SM4 Dmax (%). In a few lines: as §1

Structures are written as SMILES. Where only a bound is given, the exact number is not on record here.

T2 sequence (P51532 whole entry): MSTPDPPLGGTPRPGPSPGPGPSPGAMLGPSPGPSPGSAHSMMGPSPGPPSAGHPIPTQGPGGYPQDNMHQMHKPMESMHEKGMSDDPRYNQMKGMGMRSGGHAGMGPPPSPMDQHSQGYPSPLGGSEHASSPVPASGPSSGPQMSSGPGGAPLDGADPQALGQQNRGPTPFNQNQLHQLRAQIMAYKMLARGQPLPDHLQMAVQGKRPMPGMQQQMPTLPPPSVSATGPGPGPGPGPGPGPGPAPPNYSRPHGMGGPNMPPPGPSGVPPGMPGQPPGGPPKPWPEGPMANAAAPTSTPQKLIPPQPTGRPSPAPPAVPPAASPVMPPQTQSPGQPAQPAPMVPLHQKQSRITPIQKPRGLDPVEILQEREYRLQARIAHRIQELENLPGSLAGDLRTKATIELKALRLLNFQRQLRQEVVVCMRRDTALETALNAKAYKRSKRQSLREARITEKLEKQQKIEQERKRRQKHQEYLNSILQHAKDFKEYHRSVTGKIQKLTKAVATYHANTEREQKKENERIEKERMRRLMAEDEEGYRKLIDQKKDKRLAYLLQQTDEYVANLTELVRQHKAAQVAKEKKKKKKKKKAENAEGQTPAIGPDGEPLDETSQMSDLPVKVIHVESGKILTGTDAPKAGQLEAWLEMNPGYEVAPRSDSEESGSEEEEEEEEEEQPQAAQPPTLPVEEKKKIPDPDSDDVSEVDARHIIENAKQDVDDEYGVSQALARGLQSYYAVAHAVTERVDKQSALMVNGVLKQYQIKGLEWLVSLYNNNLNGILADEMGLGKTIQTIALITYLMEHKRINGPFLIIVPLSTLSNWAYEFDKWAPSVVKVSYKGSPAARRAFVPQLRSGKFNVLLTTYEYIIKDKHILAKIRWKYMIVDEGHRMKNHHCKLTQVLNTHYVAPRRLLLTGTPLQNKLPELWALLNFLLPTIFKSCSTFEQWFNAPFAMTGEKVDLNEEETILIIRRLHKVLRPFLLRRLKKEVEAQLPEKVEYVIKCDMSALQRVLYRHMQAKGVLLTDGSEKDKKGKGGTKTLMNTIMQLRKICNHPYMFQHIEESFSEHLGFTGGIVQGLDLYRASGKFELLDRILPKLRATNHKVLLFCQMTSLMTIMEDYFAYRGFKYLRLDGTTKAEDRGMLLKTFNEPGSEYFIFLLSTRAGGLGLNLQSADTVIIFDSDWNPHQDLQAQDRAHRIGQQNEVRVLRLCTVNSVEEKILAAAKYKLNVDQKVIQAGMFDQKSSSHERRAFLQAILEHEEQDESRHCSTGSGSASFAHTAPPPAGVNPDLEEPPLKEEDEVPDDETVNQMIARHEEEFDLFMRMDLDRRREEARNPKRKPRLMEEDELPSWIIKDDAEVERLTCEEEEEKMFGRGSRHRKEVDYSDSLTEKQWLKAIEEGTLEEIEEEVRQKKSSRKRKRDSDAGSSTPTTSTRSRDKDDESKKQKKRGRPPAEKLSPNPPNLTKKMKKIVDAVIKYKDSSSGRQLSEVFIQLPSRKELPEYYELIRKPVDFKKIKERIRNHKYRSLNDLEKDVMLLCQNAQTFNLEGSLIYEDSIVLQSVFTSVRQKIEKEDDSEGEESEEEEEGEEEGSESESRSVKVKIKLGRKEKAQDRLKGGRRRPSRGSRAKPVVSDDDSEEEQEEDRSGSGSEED
T1 sequence (P51531 whole entry): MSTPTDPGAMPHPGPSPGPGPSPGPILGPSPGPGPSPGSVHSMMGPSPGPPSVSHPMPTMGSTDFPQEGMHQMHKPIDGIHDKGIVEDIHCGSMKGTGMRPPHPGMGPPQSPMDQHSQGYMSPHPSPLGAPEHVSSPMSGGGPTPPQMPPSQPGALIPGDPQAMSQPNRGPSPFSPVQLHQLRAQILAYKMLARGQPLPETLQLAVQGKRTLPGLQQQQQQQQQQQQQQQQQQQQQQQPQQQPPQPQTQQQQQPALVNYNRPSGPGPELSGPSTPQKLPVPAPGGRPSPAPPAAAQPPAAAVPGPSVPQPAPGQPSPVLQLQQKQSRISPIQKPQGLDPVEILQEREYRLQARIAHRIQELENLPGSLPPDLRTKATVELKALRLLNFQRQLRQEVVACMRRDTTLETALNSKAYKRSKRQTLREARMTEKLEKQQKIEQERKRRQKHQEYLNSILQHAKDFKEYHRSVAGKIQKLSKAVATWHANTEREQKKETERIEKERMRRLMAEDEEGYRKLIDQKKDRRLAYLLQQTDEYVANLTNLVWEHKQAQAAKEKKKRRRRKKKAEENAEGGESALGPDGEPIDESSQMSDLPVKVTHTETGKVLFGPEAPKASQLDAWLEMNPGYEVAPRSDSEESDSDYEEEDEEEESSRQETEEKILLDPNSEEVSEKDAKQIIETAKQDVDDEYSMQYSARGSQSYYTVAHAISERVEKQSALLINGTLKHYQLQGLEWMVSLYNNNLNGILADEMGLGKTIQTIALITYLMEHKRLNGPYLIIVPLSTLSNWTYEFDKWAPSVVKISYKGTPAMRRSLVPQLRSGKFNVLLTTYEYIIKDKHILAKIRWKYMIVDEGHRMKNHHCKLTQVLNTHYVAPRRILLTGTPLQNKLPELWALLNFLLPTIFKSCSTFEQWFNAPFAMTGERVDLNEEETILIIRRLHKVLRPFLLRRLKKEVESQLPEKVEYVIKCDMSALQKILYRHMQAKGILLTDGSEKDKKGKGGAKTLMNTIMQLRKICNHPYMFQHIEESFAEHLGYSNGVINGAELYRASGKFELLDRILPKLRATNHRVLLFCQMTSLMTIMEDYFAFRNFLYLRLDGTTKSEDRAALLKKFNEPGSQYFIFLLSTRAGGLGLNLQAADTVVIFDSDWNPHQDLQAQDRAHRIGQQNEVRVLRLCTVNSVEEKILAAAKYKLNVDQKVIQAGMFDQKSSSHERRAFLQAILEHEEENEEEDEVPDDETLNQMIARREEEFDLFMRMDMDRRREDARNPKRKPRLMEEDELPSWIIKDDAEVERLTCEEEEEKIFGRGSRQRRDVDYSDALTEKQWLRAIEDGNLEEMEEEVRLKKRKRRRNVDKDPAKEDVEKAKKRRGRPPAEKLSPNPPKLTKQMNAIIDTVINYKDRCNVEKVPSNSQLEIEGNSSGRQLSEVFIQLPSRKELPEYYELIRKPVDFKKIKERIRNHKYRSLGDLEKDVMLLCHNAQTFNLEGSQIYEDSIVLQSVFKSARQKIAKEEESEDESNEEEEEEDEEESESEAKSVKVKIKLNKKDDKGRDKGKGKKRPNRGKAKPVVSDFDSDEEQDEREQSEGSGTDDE

In the case of `O=C1CCC(N2Cc3ccc(N4CCC(CN5CCN(C(=O)N6CCN7c8cc(-c9ccccc9O)nnc8NC[C@H]7C6)C(C(F)(F)F)C5)CC4)cc3C2=O)C(=O)N1` (stereo partly drawn) [Example 100, 3-(6-(4-((4-((S)-2-(2-hydroxyphenyl)-6,6a,7,8,9,10-hexahydro-5H-pyrazino[1′,2′:4,5]pyrazino[2,3-c]pyridazine-8-carbonyl)-3-(trifluoromethyl)piperazin-1-yl)methyl)piperidin-1-yl)-1-oxoisoindolin-2-yl)piperidine-2,6-dione], the DC50 is less than 10 nM in assay [1] and 10 to 100 nM in assay [2]. The Dmax in assay [1] and in assay [2] was 75 to 85% each time.

Regarding `O=C1CCC(N2Cc3ccc(N4CCC(CN5CC6(C5)CN(C(=O)N5CCN7c8cc(-c9ccccc9O)nnc8NC[C@H]7C5)C6)CC4)cc3C2=O)C(=O)N1` (stereo partly drawn) [Example 101, 3-(6-(4-((6-((S)-2-(2-hydroxyphenyl)-6,6a,7,8,9,10-hexahydro-5H-pyrazino[1′,2′:4,5]pyrazino[2,3-c]pyridazine-8-carbonyl)-2,6-diazaspiro[3.3]heptan-2-yl)methyl)piperidin-1-yl)-1-oxoisoindolin-2-yl)piperidine-2,6-dione], in assay [1], the DC50 was less than 10 nM and the Dmax fell in the range of 75 to 85%. In addition, in assay [2], the DC50 is 10 to 100 nM and the Dmax was in the range of 75 to 85%.

With `O=C1CCC(N2Cc3ccc(N4CCC(CN5CCN(C(=O)N6CCN7c8cc(-c9ccccc9O)nnc8NC[C@H]7C6)CC5C(F)(F)F)CC4)cc3C2=O)C(=O)N1` (stereo partly drawn) [Example 102, 3-(6-(4-((4-((S)-2-(2-hydroxyphenyl)-6,6a,7,8,9,10-hexahydro-5H-pyrazino[1′,2′:4,5]pyrazino[2,3-c]pyridazine-8-carbonyl)-2-(trifluoromethyl)piperazin-1-yl)methyl)piperidin-1-yl)-1-oxoisoindolin-2-yl)piperidine-2,6-dione], in assay [1], the DC50 was less than 10 nM and the Dmax is more than 85%. For the same molecule, in assay [2], the DC50 was less than 10 nM and the Dmax lay in the range of 75 to 85%.

Take `O=C1CCC(N2Cc3ccc(N4CCC(CN5C6CCC5CN(C(=O)N5CCN7c8cc(-c9ccccc9O)nnc8NC[C@H]7C5)C6)CC4)cc3C2=O)C(=O)N1` (stereo partly drawn) [Example 103, 3-(6-(4-((3-((S)-2-(2-hydroxyphenyl)-6,6a,7,8,9,10-hexahydro-5H-pyrazino[1′,2′:4,5]pyrazino[2,3-c]pyridazine-8-carbonyl)-3,8-diazabicyclo[3.2.1]octan-8-yl)methyl)piperidin-1-yl)-1-oxoisoindolin-2-yl)piperidine-2,6-dione]: in assay [1], the DC50 was less than 10 nM and the Dmax lay in the range of 75 to 85%. In assay [2], the DC50 was 10 to 100 nM and the Dmax was 75 to 85%.

Consider `CC1CN(CC2CCN(c3ccc4c(c3)C(=O)N(C3CCC(=O)NC3=O)C4)CC2)CCN1C(=O)N1CCN2c3cc(-c4ccccc4O)nnc3NC[C@H]2C1` (stereo partly drawn) [Example 104, 3-(6-(4-((4-((S)-2-(2-hydroxyphenyl)-6,6a,7,8,9,10-hexahydro-5H-pyrazino[1′,2′:4,5]pyrazino[2,3-c]pyridazine-8-carbonyl)-3-methylpiperazin-1-yl)methyl)piperidin-1-yl)-1-oxoisoindolin-2-yl)piperidine-2,6-dione], for which the DC50 in assay [1] and in assay [2] was less than 10 nM each time. Also, the Dmax is more than 85% in assay [1] and 75 to 85% in assay [2].

`CC1(C)CN(CC2CCN(c3ccc4c(c3)C(=O)N(C3CCC(=O)NC3=O)C4)CC2)CCN1C(=O)N1CCN2c3cc(-c4ccccc4O)nnc3NC[C@H]2C1` (stereo partly drawn) [Example 105, 3-(6-(4-((4-((S)-2-(2-hydroxyphenyl)-6,6a,7,8,9,10-hexahydro-5H-pyrazino[1′,2′:4,5]pyrazino[2,3-c]pyridazine-8-carbonyl)-3,3-dimethylpiperazin-1-yl)methyl)piperidin-1-yl)-1-oxoisoindolin-2-yl)piperidine-2,6-dione]: in assay [1], the DC50 is less than 10 nM and the Dmax was more than 85%. Further, in assay [2], the DC50 was less than 10 nM and the Dmax is more than 85%.

With `CC1CN(C(=O)N2CCN3c4cc(-c5ccccc5O)nnc4NC[C@H]3C2)CCN1CC1CCN(c2ccc3c(c2)C(=O)N(C2CCC(=O)NC2=O)C3)CC1` (stereo partly drawn) [Example 106, 3-(6-(4-((4-((S)-2-(2-hydroxyphenyl)-6,6a,7,8,9,10-hexahydro-5H-pyrazino[1′,2′:4,5]pyrazino[2,3-c]pyridazine-8-carbonyl)-2-methylpiperazin-1-yl)methyl)piperidin-1-yl)-1-oxoisoindolin-2-yl)piperidine-2,6-dione], in assay [1], the DC50 is less than 10 nM and the Dmax is more than 85%. For the same molecule, in assay [2], the DC50 was less than 10 nM and the Dmax is 75 to 85%.

For `O=C1CCC(N2Cc3ccc(N4CC(CN5CCN(C(=O)N6CCN7c8cc(-c9ccccc9O)nnc8NC[C@H]7C6)CC5)C4)cc3C2=O)C(=O)N1` (stereo partly drawn) [Example 107, 3-(6-(3-((4-((S)-2-(2-hydroxyphenyl)-6,6a,7,8,9,10-hexahydro-5H-pyrazino[1′,2′:4,5]pyrazino[2,3-c]pyridazine-8-carbonyl)piperazin-1-yl)methyl)azetidin-1-yl)-1-oxoisoindolin-2-yl)piperidine-2,6-dione], in assay [1], the DC50 is less than 10 nM and the Dmax is more than 85%. In assay [2], the DC50 was 10 to 100 nM and the Dmax is 75 to 85%.

With `O=C1CCC(N2Cc3ccc(N4CC(CN5C[C@@H]6[C@H](C5)[C@H]6CN5CCN6c7cc(-c8ccccc8O)nnc7NC[C@H]6C5)C4)cc3C2=O)C(=O)N1` (stereo partly drawn) [Example 108, 3-(6-(3-(((1R,5S,6r)-6-(((S)-2-(2-hydroxyphenyl)-5,6,6a,7,9,10-hexahydro-8H-pyrazino[1′,2′:4,5]pyrazino[2,3-c]pyridazin-8-yl)methyl)-3-azabicyclo[3.1,0]hexan-3-yl)methyl)azetidin-1-yl)-1-oxoisoindolin-2-yl)piperidine-2,6-dione], in assay [1], the DC50 is less than 10 nM and the Dmax was more than 85%. Further, in assay [2], the DC50 was less than 10 nM and the Dmax is more than 85%.

On to `O=C1CCC(N2C(=O)c3ccc(N4CC(CN5C[C@@H]6[C@H](C5)[C@H]6CN5CCN6c7cc(-c8ccccc8O)nnc7NC[C@H]6C5)C4)cc3C2=O)C(=O)N1` (stereo partly drawn) [Example 109, 2-(2,6-dioxopiperidin-3-yl)-5-(3-(((1R,5S,6r)-6-(((S)-2-(2-hydroxyphenyl)-5,6,6a,7,9,10-hexahydro-8H-pyrazino[1′,2′:4,5]pyrazino[2,3-c]pyridazin-8-yl)methyl)-3-azabicyclo[3.1.0]hexan-3-yl)methyl)azetidin-1-yl)isoindoline-1,3-dione], for which, in assay [1], the DC50 is less than 10 nM and the Dmax was more than 85%. In assay [2], the DC50 is less than 10 nM and the Dmax is more than 85%.

As to `O=C1CCC(N2Cc3ccc(N4CCC(CN5CCN(C(=O)N6CCN7c8cc(-c9ccccc9O)nnc8NC[C@H]7C6)C(CO)C5)CC4)cc3C2=O)C(=O)N1` (stereo partly drawn) [Example 110, 3-(6-(4-((3-(hydroxymethyl)-4-((S)-2-(2-hydroxyphenyl)-6,6a,7,8,9,10-hexahydro-5H-pyrazino[1′,2′:4,5]pyrazino[2,3-c]pyridazine-8-carbonyl)piperazin-1-yl)methyl)piperidin-1-yl)-1-oxoisoindolin-2-yl)piperidine-2,6-dione], in assay [1], the DC50 was less than 10 nM and the Dmax is more than 85%. Also, in assay [2], the DC50 fell in the range of 10 to 100 nM and the Dmax is 75 to 85%.

`O=C1CCC(N2Cc3ccc(N4CCOC(CN5CCN(C(=O)N6CCN7c8cc(-c9ccccc9O)nnc8NC[C@H]7C6)CC5)C4)cc3C2=O)C(=O)N1` (stereo partly drawn) [Example 111, 3-(6-(2-((4-((S)-2-(2-hydroxyphenyl)-6,6a,7,8,9,10-hexahydro-5H-pyrazino[1′,2′:4,5]pyrazino[2,3-c]pyridazine-8-carbonyl)piperazin-1-yl)methyl)morpholino)-1-oxoisoindolin-2-yl)piperidine-2,6-dione]: the values for the DC50 in assay [1] and in assay [2] were less than 10 nM and 10 to 100 nM, respectively. For the same molecule, the Dmax in assay [1] and in assay [2] was 50 to 75% each time.

`C[C@H]1CN(CC2CCN(c3ccc4c(c3)C(=O)N(C3CCC(=O)NC3=O)C4)CC2)CCN1C(=O)N1CCN2c3cc(-c4ccccc4O)nnc3NC[C@H]2C1` (stereo partly drawn) [Example 112, 3-(6-(4-(((S)-4-((S)-2-(2-hydroxyphenyl)-6,6a,7,8,9,10-hexahydro-5H-pyrazino[1′,2′:4,5]pyrazino[2,3-c]pyridazine-8-carbonyl)-3-methylpiperazin-1-yl)methyl)piperidin-1-yl)-1-oxoisoindolin-2-yl)piperidine-2,6-dione]: in assay [1], the DC50 was less than 10 nM and the Dmax is more than 85%. In assay [2], the DC50 is less than 10 nM and the Dmax is 75 to 85%.

Regarding `O=C1CCC(N2Cc3ccc(N4CCOC(CN5CCC(C(=O)N6CCN7c8cc(-c9ccccc9O)nnc8NC[C@H]7C6)CC5)C4)cc3C2=O)C(=O)N1` (stereo partly drawn) [Example 113, 3-(6-(2-((4-((S)-2-(2-hydroxyphenyl)-6,6a,7,8,9,10-hexahydro-5H-pyrazino[1′,2′:4,5]pyrazino[2,3-c]pyridazine-8-carbonyl)piperidin-1-yl)methyl)morpholino)-1-oxoisoindolin-2-yl)piperidine-2,6-dione], in assay [1], the DC50 is less than 10 nM and the Dmax was not above 50%. Also, in assay [2], the DC50 fell in the range of 10 to 100 nM and the Dmax was in the range of 50 to 75%.
